{"source": "paper PMC6616073", "about": "(Frontiers in Pharmacology, 2019)", "key": {"[1]": {"target": "membrane-bound Torpedo californica nAChR (Tetronarce californica, UniProt P02710+P02712+P02714+P02718)", "sequence (P02714 18-506)": "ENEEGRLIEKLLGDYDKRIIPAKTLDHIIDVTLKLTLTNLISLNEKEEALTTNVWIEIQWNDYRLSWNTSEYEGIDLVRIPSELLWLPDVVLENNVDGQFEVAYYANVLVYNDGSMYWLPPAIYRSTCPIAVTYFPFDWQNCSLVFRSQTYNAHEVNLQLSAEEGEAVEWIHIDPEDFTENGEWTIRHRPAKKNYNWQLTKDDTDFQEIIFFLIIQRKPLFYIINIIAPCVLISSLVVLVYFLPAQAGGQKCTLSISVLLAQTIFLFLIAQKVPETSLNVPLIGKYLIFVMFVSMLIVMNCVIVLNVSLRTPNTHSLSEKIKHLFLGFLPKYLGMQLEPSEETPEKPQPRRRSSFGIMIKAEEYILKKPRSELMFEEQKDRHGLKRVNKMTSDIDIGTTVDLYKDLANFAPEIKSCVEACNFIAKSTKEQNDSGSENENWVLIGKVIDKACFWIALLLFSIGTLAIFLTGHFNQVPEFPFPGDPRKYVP", "sequence (P02710 25-461)": "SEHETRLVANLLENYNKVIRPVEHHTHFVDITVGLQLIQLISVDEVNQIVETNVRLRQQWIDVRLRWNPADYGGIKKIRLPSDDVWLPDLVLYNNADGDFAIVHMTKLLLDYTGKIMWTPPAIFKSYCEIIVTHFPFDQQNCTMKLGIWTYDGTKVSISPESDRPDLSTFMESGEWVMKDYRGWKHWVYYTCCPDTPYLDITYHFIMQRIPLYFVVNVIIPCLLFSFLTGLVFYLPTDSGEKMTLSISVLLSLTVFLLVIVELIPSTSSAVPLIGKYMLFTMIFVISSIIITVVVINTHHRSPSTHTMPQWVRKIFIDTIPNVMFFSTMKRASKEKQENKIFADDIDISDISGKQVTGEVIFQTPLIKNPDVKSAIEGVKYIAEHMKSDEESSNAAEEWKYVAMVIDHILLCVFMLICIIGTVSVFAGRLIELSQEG", "sequence (P02718 22-522)": "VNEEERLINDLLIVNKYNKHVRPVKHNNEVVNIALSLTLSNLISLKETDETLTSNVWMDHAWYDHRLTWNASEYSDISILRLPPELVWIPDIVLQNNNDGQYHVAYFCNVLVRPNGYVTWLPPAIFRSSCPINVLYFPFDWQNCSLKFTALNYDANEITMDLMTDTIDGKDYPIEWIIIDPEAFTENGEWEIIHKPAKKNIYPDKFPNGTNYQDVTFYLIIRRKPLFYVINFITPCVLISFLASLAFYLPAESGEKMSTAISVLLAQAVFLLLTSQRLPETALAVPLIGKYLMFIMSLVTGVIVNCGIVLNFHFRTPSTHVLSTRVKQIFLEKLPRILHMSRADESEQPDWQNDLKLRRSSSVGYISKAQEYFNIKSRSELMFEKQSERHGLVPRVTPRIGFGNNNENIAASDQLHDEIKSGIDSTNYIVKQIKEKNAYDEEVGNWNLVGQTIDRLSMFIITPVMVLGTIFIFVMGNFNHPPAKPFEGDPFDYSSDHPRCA", "sequence (P02712 25-493)": "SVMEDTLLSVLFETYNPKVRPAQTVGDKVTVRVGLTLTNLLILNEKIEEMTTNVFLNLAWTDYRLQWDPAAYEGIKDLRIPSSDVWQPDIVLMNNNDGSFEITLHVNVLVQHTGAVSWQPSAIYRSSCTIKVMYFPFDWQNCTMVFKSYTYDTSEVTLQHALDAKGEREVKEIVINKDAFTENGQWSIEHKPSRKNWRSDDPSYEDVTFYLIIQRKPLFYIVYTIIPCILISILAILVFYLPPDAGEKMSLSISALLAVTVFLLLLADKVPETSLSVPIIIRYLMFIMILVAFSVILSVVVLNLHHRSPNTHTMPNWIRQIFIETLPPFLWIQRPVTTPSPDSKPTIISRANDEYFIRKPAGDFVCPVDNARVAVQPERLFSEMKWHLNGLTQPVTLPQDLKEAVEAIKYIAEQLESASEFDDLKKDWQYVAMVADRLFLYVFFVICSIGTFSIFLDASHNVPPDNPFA", "assay": "biochemical", "format": "binding"}, "[2]": {"target": "T1, AChBP from Aplysia californica (Aplysia californica, UniProt Q8WSF8)", "T1 construct": "made in house", "T1 sequence (Q8WSF8 entry or part of it)": "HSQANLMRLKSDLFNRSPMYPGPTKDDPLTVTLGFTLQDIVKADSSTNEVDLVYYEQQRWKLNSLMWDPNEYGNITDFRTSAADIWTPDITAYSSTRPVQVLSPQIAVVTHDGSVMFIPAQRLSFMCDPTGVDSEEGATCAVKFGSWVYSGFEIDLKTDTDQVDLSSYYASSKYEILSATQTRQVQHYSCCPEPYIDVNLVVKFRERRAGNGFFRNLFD", "assay": "biochemical", "format": "binding"}, "rat α9α10 nAChR": {"target": "T2, rat α9α10 nAChR (Rattus norvegicus, UniProt P43144+Q9JLB5)", "T2 construct": "expressed in transfected cells; host or cells: Xenopus laevis oocytes injected with cRNA (pGEMHE vector)", "T2 sequence (Q9JLB5 25-447)": "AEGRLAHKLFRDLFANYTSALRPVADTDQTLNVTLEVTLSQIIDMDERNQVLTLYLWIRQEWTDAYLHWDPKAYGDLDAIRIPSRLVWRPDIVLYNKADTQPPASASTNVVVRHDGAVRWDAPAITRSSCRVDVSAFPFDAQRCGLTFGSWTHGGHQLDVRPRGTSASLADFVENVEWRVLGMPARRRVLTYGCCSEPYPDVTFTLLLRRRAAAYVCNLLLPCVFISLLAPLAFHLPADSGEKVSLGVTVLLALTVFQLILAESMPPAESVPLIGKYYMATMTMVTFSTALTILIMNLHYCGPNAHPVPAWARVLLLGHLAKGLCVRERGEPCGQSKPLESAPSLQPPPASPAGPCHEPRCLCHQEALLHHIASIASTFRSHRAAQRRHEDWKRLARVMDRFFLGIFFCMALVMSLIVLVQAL", "T2 sequence (P43144 26-479)": "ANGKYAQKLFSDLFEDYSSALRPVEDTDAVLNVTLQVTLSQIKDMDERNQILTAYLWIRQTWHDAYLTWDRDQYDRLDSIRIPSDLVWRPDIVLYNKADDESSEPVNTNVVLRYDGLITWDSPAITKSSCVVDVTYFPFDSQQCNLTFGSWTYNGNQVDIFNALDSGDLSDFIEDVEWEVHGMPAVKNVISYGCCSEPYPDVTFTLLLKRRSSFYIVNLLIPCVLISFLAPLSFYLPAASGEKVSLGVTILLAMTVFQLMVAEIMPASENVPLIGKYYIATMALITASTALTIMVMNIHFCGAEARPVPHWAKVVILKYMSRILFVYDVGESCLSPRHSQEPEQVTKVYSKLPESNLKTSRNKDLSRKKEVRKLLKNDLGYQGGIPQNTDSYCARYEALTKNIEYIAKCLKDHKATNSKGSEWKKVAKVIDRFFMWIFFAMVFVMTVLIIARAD", "assay": "Two-electrode voltage clamp, rat α9α10 nAChR in Xenopus oocytes", "format": "cell-based", "conditions": "X. laevis oocytes, 30 μM acetylcholine, 5 min pre-incubation with peptide, −60 mV; n = 3; read-out: IC50, inhibition of acetylcholine-induced ion currents in rat α9α10 nAChR", "procedure": "Oocytes were removed from mature, anesthetized Xenopus laevis by dissecting abdomen and removing necessary amount of ovarium. Stage V–VI Xenopus laevis oocytes were defolliculated with 2 mg/ml collagenase type I (Life Technologies, Camarillo, USA) at room temperature (21–24°C) for 2 h in Ca^2+-free Barth’s solution composed of (in mM) 88 NaCl, 1.1 KCl, 2.4 NaHCO3, 0.8 MgSO4, and 15 HEPES-NaOH at pH 7.6. Oocytes were injected with 9.2 ng of rat or human nAChR α9 and α10 cRNA (in a ratio 1:1) or human α3 and β2 or α4 and β2 cRNA (in a ratio 1:1). Oocytes were incubated at 18°C for 2–4 days before electrophysiological recordings in Barth’s solution composed of (in mM) 88 NaCl, 1.1 KCl, 2.4 NaHCO3, 0.3 Ca(NO3)2, 0.4 CaCl2, 0.8 MgSO4, and 15 HEPES-10NaOH at pH 7.6, supplemented with 40 μg/ml gentamicin and 100 μg/ml ampicillin. Recordings were performed using turbo TEC-03X amplifier (NPI Electronic, Tamm, Germany) and WinWCP recording software (University of Strathclyde, Glasgow, UK). The glass recording electrodes were filled with 3 M KCl and the electrode resistance was 0.1−0.5 MΩ. Membrane potential was clamped at −60 mV. […] The peak current amplitudes of ACh-induced responses were measured before (ACh alone) and after the preincubation of oocytes with peptides. […]"}, "human α9α10 nAChR": {"target": "T3, human α9α10 nAChR (Homo sapiens, UniProt Q9GZZ6+Q9UGM1)", "T3 construct": "expressed in transfected cells; host or cells: Xenopus laevis oocytes injected with cRNA (pT7TS vector)", "T3 sequence (Q9UGM1 26-479 limits assumed)": "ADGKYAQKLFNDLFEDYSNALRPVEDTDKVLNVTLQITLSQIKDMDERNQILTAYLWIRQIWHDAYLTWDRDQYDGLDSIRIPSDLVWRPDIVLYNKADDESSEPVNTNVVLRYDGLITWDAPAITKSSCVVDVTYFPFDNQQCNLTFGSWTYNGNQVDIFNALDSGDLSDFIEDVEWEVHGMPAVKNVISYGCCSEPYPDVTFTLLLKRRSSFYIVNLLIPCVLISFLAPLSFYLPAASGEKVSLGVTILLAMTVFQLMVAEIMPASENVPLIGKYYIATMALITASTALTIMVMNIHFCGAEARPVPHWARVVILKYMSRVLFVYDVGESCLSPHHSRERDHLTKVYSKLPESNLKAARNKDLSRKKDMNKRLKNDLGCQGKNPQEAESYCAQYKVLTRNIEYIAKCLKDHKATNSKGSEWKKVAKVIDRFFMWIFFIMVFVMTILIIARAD", "T3 sequence (Q9GZZ6 25-450)": "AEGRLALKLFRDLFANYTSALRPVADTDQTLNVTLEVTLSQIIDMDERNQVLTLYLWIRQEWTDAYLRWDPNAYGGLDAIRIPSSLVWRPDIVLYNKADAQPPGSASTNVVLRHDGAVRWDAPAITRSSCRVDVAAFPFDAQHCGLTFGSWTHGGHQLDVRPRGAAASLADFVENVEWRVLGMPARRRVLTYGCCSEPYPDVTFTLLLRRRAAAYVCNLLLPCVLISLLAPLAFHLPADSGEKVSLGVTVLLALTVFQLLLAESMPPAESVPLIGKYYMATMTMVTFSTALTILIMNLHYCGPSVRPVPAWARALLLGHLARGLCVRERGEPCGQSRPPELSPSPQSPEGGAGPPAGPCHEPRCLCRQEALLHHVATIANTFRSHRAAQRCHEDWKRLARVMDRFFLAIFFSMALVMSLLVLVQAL", "assay": "Two-electrode voltage clamp, human α9α10 nAChR in Xenopus oocytes", "format": "cell-based", "conditions": "for inhibition of human α9α10 nAChR (result in words): concentrations as high as 50 µM, Xenopus oocytes, data not shown", "procedure": "(§1) Oocytes were removed from mature, anesthetized Xenopus laevis by dissecting abdomen and removing necessary amount of ovarium. Stage V–VI Xenopus laevis oocytes were defolliculated with 2 mg/ml collagenase type I (Life Technologies, Camarillo, USA) at room temperature (21–24°C) for 2 h in Ca^2+-free Barth’s solution composed of (in mM) 88 NaCl, 1.1 KCl, 2.4 NaHCO3, 0.8 MgSO4, and 15 HEPES-NaOH at pH 7.6. Oocytes were injected with 9.2 ng of rat or human nAChR α9 and α10 cRNA (in a ratio 1:1) or human α3 and β2 or α4 and β2 cRNA (in a ratio 1:1). Oocytes were incubated at 18°C for 2–4 days before electrophysiological recordings in Barth’s solution composed of (in mM) 88 NaCl, 1.1 KCl, 2.4 NaHCO3, 0.3 Ca(NO3)2, 0.4 CaCl2, 0.8 MgSO4, and 15 HEPES-10NaOH at pH 7.6, supplemented with 40 μg/ml gentamicin and 100 μg/ml ampicillin. Recordings were performed using turbo TEC-03X amplifier (NPI Electronic, Tamm, Germany) and WinWCP recording software (University of Strathclyde, Glasgow, UK). The glass recording electrodes were filled with 3 M KCl and the electrode resistance was 0.1−0.5 MΩ. Membrane potential was clamped at −60 mV. Oocytes were briefly washed with Ba^2+ Ringer’s solution ([Fuchs and Murrow, 1992]) composed of (in mM) 115 NaCl, 2.5 KCl, 1.8 BaCl2, 10 HEPES at pH 7.2, followed by three applications of 10 μM acetylcholine (ACh). Washout with Ba^2+ Ringer’s was done for 5 min between ACh applications. Oocytes were preincubated with various concentrations of Ly6 peptides for 5 min followed by their co-application with ACh. To induce ion current, we used ACh in the concentration range from 10 to 30 μM. The peak current amplitudes of ACh-induced responses were measured before (ACh alone) and after the preincubation of oocytes with peptides. The ratio between these two measurements was used to assess the activity of the tested compounds. In the experiments with α3β2 and α4β2, the above technique was also used, except that oocytes were washed in Barth`s solution. All control experiments were performed on the same day.\nRat α9 and α10 cDNAs was cloned in a pGEMHE vector; human α9, α10, α3, and β2 cDNAs were derived from pT7TS vector. Human α4 was cloned in pSP64 vector. Plasmid pT7TS constructs of human nAChR α9 and α10 subunits and human α3 and β2 subunits were linearized with XbaI restriction enzymes (NEB, Ipswich, USA). pSP64 vector was linearized with BamH1 restriction enzymes (NEB, Ipswich, USA). Rat α9 and α10 plasmids were linearized using NheI (NEB, Ipswich, USA). All plasmid constructs were sequencing before mRNA synthesis. […]"}, "human α7 nAChR": {"target": "human α7 nAChR (Homo sapiens, UniProt P36544)", "sequence (P36544 23-502)": "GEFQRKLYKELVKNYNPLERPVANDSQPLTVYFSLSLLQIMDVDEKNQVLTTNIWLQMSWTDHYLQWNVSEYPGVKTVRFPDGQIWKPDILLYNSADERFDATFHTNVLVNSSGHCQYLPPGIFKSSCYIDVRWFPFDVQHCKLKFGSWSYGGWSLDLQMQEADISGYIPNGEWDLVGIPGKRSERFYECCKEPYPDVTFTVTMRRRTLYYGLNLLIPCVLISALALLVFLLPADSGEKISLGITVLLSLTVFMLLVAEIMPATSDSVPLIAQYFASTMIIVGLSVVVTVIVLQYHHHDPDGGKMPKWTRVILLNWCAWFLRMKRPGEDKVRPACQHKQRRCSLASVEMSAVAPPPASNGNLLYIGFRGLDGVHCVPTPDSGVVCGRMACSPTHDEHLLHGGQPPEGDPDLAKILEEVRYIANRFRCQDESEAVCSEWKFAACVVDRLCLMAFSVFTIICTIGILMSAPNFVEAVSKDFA", "assay": "cell-based", "format": "binding"}, "human α3β2 nAChR": {"tested_on": "human α3β2 nAChR", "assay": "Two-electrode voltage clamp, human α3β2 nAChR in Xenopus oocytes", "format": "cell-based", "conditions": "X. laevis oocytes; for activity on ion currents in α3β2 nAChR (result in words): 30 μM acetylcholine, 30 µM peptide in text, 50 μM in Figure 4, n = 3 or 5", "procedure": "as §1, with “day. […]” for “day.”"}, "[3]": {"conditions": "[…], 90 min with peptide + 5 min with radioligand, 20 mM Tris-HCl pH 8.0, 1 mg/ml BSA, mean (95% CI), three to four independent experiments, read-out: IC50, μM (95%CI) T. californica"}, "[4]": {"conditions": "[…], 90 min with peptide + 5 min with radioligand, three to four independent experiments, read-out: IC50, μM (95%CI) AChBP"}}, "note": "Read-outs that look alike come from different tables or passages of the source. Positions of bridges follow the written chain, without caps; N, C: chain ends. Residues, ends and D or L forms follow the SMILES beside them."}
{"smiles": "CSCC[C@@H]1NC(=O)[C@H](CCCNC(=N)N)NC(=O)[C@H]([C@@H](C)O)NC(=O)[C@@H]2CCCN2C(=O)[C@H]([C@@H](C)O)NC(=O)[C@H](Cc2ccc(O)cc2)NC(=O)[C@H](Cc2ccc(O)cc2)NC(=O)[C@H]([C@@H](C)O)NC(=O)[C@H](CCCNC(=N)N)NC(=O)[C@H]([C@@H](C)O)NC(=O)[C@H]([C@@H](C)O)NC(=O)[C@@H](N)CSSC[C@@H](C(=O)O)NC(=O)[C@H](CCCCN)NC(=O)[C@H](CO)NC(=O)[C@H](C(C)C)NC(=O)[C@H](CCCCN)NC1=O", "note": "[Lynx1 (1)] (H-CTTRTYYTPTRMKVSKC-OH; disulfide 1-17)", "values": [{"measurement": "IC50", "setting": "[1]; IC50, μM (95%CI) T. californica", "value": 4.9, "unit": "µM"}, {"measurement": "IC50", "setting": "[2]", "value": "> 100", "unit": "µM"}, {"measurement": "IC50", "setting": "rat α9α10 nAChR", "value": 27, "unit": "µM"}]}
{"smiles": "CSCC[C@H](NC(=O)[C@H](CCCNC(=N)N)NC(=O)[C@@H](NC(=O)[C@@H]1CCCN1C(=O)[C@@H](NC(=O)[C@H](Cc1ccc(O)cc1)NC(=O)[C@H](Cc1ccc(O)cc1)NC(=O)[C@@H](NC(=O)[C@H](CCCNC(=N)N)NC(=O)[C@@H](NC(=O)[C@@H](N)[C@@H](C)O)[C@@H](C)O)[C@@H](C)O)[C@@H](C)O)[C@@H](C)O)C(=O)N[C@@H](CCCCN)C(=O)N[C@H](C(=O)N[C@@H](CO)C(=O)N[C@@H](CCCCN)C(=O)O)C(C)C", "note": "[Lynx1 linear (2)] (H-TTRTYYTPTRMKVSK-OH)", "values": [{"measurement": "IC50", "setting": "[1]; [3]", "value": 13.2, "unit": "µM"}, {"measurement": "IC50", "setting": "human α9α10 nAChR", "value": 32.3, "unit": "µM"}, {"measurement": "IC50", "setting": "human α7 nAChR; […], 90 min with peptide + 5 min with radioligand, Tris-HCl pH 8.0, mean (95% CI), three to four independent experiments", "value": "> 180", "unit": "µM"}, {"measurement": "IC50", "setting": "[2]; [4]", "value": "> 100", "unit": "µM"}]}
{"smiles": "CSCC[C@@H]1NC(=O)[C@H](CCCNC(=N)N)NC(=O)[C@H]([C@@H](C)O)NC(=O)[C@@H]2CCCN2C(=O)[C@H]([C@@H](C)O)NC(=O)[C@H](Cc2ccc(O)cc2)NC(=O)[C@H](Cc2ccc(O)cc2)NC(=O)[C@H]([C@@H](C)O)NC(=O)[C@H](CCCNC(=N)N)NC(=O)[C@H]([C@@H](C)O)NC(=O)[C@@H](N)CSSC[C@@H](C(=O)O)NC1=O", "note": "[Lynx1 short (3)] (H-CTRTYYTPTRMC-OH; disulfide 1-12)", "values": [{"measurement": "IC50", "setting": "[1]; [3]", "value": 74.1, "unit": "µM"}, {"measurement": "IC50", "setting": "[2]; [4]", "value": "> 100", "unit": "µM"}]}
{"smiles": "CSCC[C@H](NC(=O)[C@H](CCCNC(=N)N)NC(=O)[C@@H](NC(=O)[C@@H]1CCCN1C(=O)[C@@H](NC(=O)[C@H](Cc1ccc(O)cc1)NC(=O)[C@H](Cc1ccc(O)cc1)NC(=O)[C@@H](NC(=O)[C@H](CCCNC(=N)N)NC(=O)[C@@H](NC(=O)[C@@H](N)CS)[C@@H](C)O)[C@@H](C)O)[C@@H](C)O)[C@@H](C)O)C(=O)N[C@@H](CS)C(=O)O", "note": "[Lynx1 short linear (4)] (H-CTRTYYTPTRMC-OH)", "values": [{"measurement": "IC50", "setting": "[1]; [3]", "value": 15.6, "unit": "µM"}, {"measurement": "IC50", "setting": "[2]; [4]", "value": "> 100", "unit": "µM"}]}
{"smiles": "CC(C)C[C@@H]1NC(=O)[C@H]([C@@H](C)O)NC(=O)[C@@H](N)CSSC[C@@H](C(=O)O)NC(=O)[C@H]([C@@H](C)O)NC(=O)[C@H](C(C)C)NC(=O)[C@H](C(C)C)NC(=O)[C@@H]2CCCN2C(=O)[C@H](CO)NC(=O)[C@H](CCC(N)=O)NC(=O)[C@H](CC(N)=O)NC(=O)[C@H](Cc2ccccc2)NC(=O)[C@@H]2CCCN2C(=O)[C@H](Cc2ccc(O)cc2)NC(=O)[C@H](CCC(=O)O)NC(=O)[C@H](C)NC(=O)[C@H](CCC(=O)O)NC(=O)[C@H](C(C)C)NC(=O)[C@H]([C@@H](C)O)NC(=O)[C@H](C(C)C)NC1=O", "note": "[SLURP1 (6)] (H-CTLVTVEAEYPFNQSPVVTC-OH; disulfide 1-20; N-terminus assumed)", "values": [{"measurement": "normalized ion current in human α3β2 nAChR (current with ACh alone = 1)", "setting": "human α3β2 nAChR; 50 μM peptide, 30 μM ACh, mean ± SEM, n = 5", "value": "0.74 ± 0.08"}, {"measurement": "inhibition of human α9α10 nAChR (result in words)", "setting": "human α9α10 nAChR", "value": "no inhibition"}]}
{"smiles": "CC(C)C[C@@H]1NC(=O)[C@H](C(C)C)NC(=O)[C@H](CCCNC(=N)N)NC(=O)[C@H]([C@@H](C)O)NC(=O)[C@H](C)NC(=O)[C@H]([C@@H](C)O)NC(=O)[C@@H](N)CSSC[C@@H](C(=O)O)NC(=O)[C@H]([C@@H](C)O)NC(=O)[C@H](C(C)C)NC(=O)[C@H](CC(C)C)NC(=O)[C@@H]2CCCN2C(=O)[C@H](CC(C)C)NC(=O)[C@H](CC(=O)O)NC(=O)[C@H](CCC(=O)O)NC(=O)[C@H]([C@@H](C)O)NC(=O)[C@H](CC(N)=O)NC(=O)[C@H](CO)NC1=O", "note": "[SLURP2 (7)] (H-CTATRVLSNTEDLPLVTC-OH; disulfide 1-18; N-terminus assumed)", "values": [{"measurement": "activity on ion currents in α3β2 nAChR (result in words)", "setting": "human α3β2 nAChR", "value": "inactive"}, {"measurement": "inhibition of human α9α10 nAChR (result in words)", "setting": "human α9α10 nAChR", "value": "no inhibition"}]}
{"smiles": "CSCC[C@@H]1NC(=O)[C@H](CCCNC(=N)N)NC(=O)[C@H](CCCNC(=N)N)NC(=O)[C@H](C(C)C)NC(=O)[C@H](C(C)C)NC(=O)[C@H](CCC(=O)O)NC(=O)[C@H](Cc2ccc(O)cc2)NC(=O)[C@@H]2CCCN2C(=O)[C@H](CO)NC(=O)[C@H](CCCNC(=N)N)NC(=O)[C@H](CCC(N)=O)NC(=O)[C@H](Cc2c[nH]cn2)NC(=O)[C@H](CCCNC(=N)N)NC(=O)[C@H](C(C)C)NC(=O)[C@H](CCSC)NC(=O)[C@H](CCCCN)NC(=O)[C@@H](N)CSSC[C@@H](C(=O)O)NC1=O", "note": "[SSS (5)] (H-CKMVRHQRSPYEVVRRMC-OH; disulfide 1-18; N-terminus assumed)", "values": [{"measurement": "activity on ion currents in α3β2 nAChR (result in words)", "setting": "human α3β2 nAChR", "value": "inactive"}, {"measurement": "inhibition of ion currents in human α9α10 nAChR", "setting": "human α9α10 nAChR; 100 μM peptide, 25 μM acetylcholine, X. laevis oocytes, n = 3", "value": 50, "unit": "%"}, {"measurement": "fold more active against α7 nAChR than the Lynx1 fragment (1)", "setting": "human α7 nAChR; ratio of IC50 values of the radioligand assay", "value": 10, "unit": "fold"}]}
